According to US9242937B2, “Pharmaceutically active disubstituted pyridine derivatives” (Bayer Intellectual Property GmbH, priority 2011, dated 2016):

What was measured:
MDAMB468 cells = test: Cell viability assay, MDAMB468 cells; type: cell-based; settings: Homo sapiens, MDA-MB-468; 72 h, Cell Titer Glo; read-out: Cell Viability - MDAMB468 cells (activity range), IC50
Method: Hela- or MDAMB468-Cells were maintained in RPMI 1640 or McCoy's 5A cell culture medium+glutamine (PAN Biotech GmbH, Aidenbach, Germany; order no. P04-22100; P04-05500) supplemented with 10% fetal calf serum “Gold” (PAA Laboratories GmbH, Pasching, Austria; order no. A15-151) and grown at 37° C., 5% CO2. For the cell viability assay, cells were seeded with a density of 400 (Hela cells, DSMZ Braunschweig order no. ACC57) or 800 (MDAMB468 cells, ATCC order no. HTB-132) per well in 25 μL in 384-well plates (Greiner Bio-One, Frickenhausen, Germany; order no. 781080). After overnight incubation at 37° C./5% CO2, 25 nL or 75 nL compound were added to each sample well by using BIOMEK FXP Laboratory Automation Workstation (Beckman Coulter, USA). Wells with cells and 0.1% or 0.3% DMSO in culture medium were used as positive controls, wells with cells and 10 μM staurosporine in culture medium were used as negative controls. The cells were incubated with the compounds for 72 h at 37° C./5% CO2. For measurement of cell viability 25 μL Cell Titer Glo reagent (Promega, Madison, USA; order no. G7573), 1:2 diluted with cell culture medium, was added to each well. The 384 well-plates were placed for 2 min on a orbital microplate shaker and incubated for further 10 min at room temperature to stabilize the luminescence signal. Luminescence was measured by Envision Plate Reader (Perkin Elmer, USA). IC50 values were calculated with the software Excel Fit (IDBS, Guildford, UK) from 3-fold dilution series comprising at least 8 concentrations in duplicates.

CDK2/CyclinA = biological target: T1, CDK2/CyclinA (Homo sapiens, UniProt P24941); test: Lance Ultra KinaSelect Assay, CDK2; type: biochemical; settings: ULight MBP substrate, ATP 3 μM; read-out: CDK2 LANCE assay (activity range), IC50
T1 construct: purchased Proqinase
Method: (§1) This protocol describes how the Lance Ultra KinaSelect Assay was performed to determine half maximal inhibitory concentration (IC50) of compounds of general formula (I) and CDK/Cyclin complexes. The principle behind this enzymatic assay is based upon the phosphorylation of the ULight-Peptide Substrat. It is detected by using a specific EU-labeled anti-phospho peptide antibody. The binding of the Eu-labeled anti-phospho peptide antibody to the phosphorylated ULight labeled peptide gives rise to a FRET-signal. Binding of an inhibitor to the kinase prevents phosphorylation of the ULight-MBP Substrat, resulting in a loss of FRET.
(§2) The compounds of general formula (I) summarized in Table 5 were diluted from a 10 mM DMSO stock solution 1:10 in a total volume of 15 μL DMSO. This compound predilution was then serial diluted 1:3 over 8 steps in DMSO and briefly spun down. Each compound solution was now diluted 1:20 in Enzymatic Buffer (HEPES: 50 mM, pH: 7.5; MgCl2: 10 mM; EGTA: 1 mM; DTT: 2 mM; Tween-20: 0.01%), mixed thoroughly and spun down. For every sample, 2 μL of the diluted compound were mixed with 6 μL CDK/Cyclin/Substrat solution and 2 μL ATP solution in a well of a small volume 384 well plate (Corning Incorporated, Corning, N.Y., USA; order no. 3673). The CDK/Cyclin was diluted to the appropriate concentration (see Table 3) and the ATP concentration was adjusted to its […] for the CDK/Cyclin, which was 3 μM for CDK2/Cyclin A, 20 μM for CDK1/Cyclin B1, 25 μM for CDK7/Cyclin H and CDK9/Cyclin T1, 55 μM for CDK6/Cyclin D3, 90 μM for CDK4/Cyclin D1 and 125 μM for CDK9/Cyclin K. For negative controls, in each well 2 μL of DMSO solution (1% final DMSO assay concentration) was mixed with 6 μL substrate solution (50 nM ULight MBP final assay concentration) and 2 μL ATP solution (appropriate final concentration see Table 3). For positive controls, in each well 2 μL of DMSO solution (1% final DMSO assay concentration) was mixed with 6 μL CDK/Cyclin/Substrat (appropriate final concentration see Table 3) and 2 μL Tracer ATP solution (appropriate final concentration see Table 3). Positive and negative controls were calculated from at least 8 different sample wells. The 384 well plates were mixed in a Teleshaker plate mixer (Beckman Coulter, Brea, Calif., USA) at 2000 rpm for 40 sec, and incubated for 1 h at room temperature. Before reading, 10 μL the detection buffer (Lance Detection Buffer 1×; EDTA: […]; Eu-Anti-P-MBP: see Table 3) was added. The FRET signal was measured at 340 nm excitation, 665 nm and 615 nm emission (for the kinase tracer and LanthaScreen Eu-AB, respectively) with an Envision spectrophotometer (Perkin Elmer, Waltham, Mass., USA) with 50 μs delay and 300 μs integration time. IC50 values were determined from the sigmoidal dose response curves with the software Quattro Workflow (Quattro GmbH, Munich, Germany).

CDK7/CyclinH/MAT1 = biological target: T2, CDK7/CyclinH/MAT1 (Homo sapiens, UniProt P50613); test: Lance Ultra KinaSelect Assay, CDK7; type: biochemical; settings: ULight MBP substrate, ATP 25 μM; read-out: CDK7 LANCE assay (activity range), IC50
T2 construct: purchased Carna Biosciences
Method: as §1, §2

T2 sequence (P50613 whole entry): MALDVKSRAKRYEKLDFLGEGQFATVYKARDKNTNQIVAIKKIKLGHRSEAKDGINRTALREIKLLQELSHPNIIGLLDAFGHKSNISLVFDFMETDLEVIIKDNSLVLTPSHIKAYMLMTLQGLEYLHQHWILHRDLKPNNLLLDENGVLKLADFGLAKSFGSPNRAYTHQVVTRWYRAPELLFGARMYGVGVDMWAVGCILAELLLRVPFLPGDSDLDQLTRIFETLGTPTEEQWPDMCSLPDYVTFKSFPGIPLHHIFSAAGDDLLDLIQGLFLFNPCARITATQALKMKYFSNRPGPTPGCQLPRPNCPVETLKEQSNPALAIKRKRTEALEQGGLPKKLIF
T2 sequence (P51946 whole entry partner): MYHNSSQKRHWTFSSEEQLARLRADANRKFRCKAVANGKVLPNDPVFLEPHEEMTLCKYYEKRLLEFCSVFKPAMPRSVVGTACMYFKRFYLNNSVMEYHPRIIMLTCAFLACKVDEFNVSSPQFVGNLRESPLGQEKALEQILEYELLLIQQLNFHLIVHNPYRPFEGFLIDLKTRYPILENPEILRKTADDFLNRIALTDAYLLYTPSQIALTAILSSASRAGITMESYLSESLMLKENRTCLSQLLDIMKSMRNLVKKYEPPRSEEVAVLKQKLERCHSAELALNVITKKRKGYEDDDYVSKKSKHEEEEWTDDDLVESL
T2 sequence (P51948 whole entry partner): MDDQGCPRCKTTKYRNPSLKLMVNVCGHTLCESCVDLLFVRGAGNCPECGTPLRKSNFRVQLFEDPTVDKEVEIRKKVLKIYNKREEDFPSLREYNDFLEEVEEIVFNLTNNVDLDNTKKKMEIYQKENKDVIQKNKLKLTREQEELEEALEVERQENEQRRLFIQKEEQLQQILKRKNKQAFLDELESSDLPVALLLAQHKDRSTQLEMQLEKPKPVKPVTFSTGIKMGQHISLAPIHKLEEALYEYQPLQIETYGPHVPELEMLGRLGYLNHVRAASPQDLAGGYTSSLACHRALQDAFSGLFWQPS

Q: For `COc1ccccc1-c1ccnc(Nc2ccccc2)c1` [Compound B1, 4-(2-Methoxyphenyl)-N-phenylpyridin-2-amine], which IC50 (MDAMB468 cells) is on record?
A: > 10 µM

Q: Which IC50 (MDAMB468 cells) does the source give for `COc1ccccc1-c1ccnc(Nc2cccc([N+](=O)[O-])c2)c1` [Compound C1, 4-(2-Methoxyphenyl)-N-(3-nitrophenyl)pyridin-2-amine] here?
A: > 10 µM

Q: Which results are given for `COc1ccccc1-c1ccnc(Nc2cccc(S(N)(=O)=O)c2)c1` [Compound D1, 3-[(4-(2-Methoxyphenyl)pyridin-2-yl)amino]benzenesulfonamide]?
A: IC50 (CDK2/CyclinA): 100 to 1000 nM; IC50 (MDAMB468 cells): 0.1 to 1 µM; IC50 (CDK7/CyclinH/MAT1): > 10 µM

Q: For `COc1ccccc1-c1ccnc(Nc2ccc(S(N)(=O)=O)cc2)c1` [Compound E1, 4-[(4-(2-Methoxyphenyl)pyridin-2-yl)amino]benzenesulfonamide], which IC50 (CDK2/CyclinA) is on record?
A: < 100 nM

Q: What about the IC50 (MDAMB468 cells) of the same compound?
A: 1 to 10 µM

Q: What about the IC50 (CDK7/CyclinH/MAT1) of the same compound?
A: > 10 µM

Q: With `COc1ccccc1-c1ccnc(Nc2cccc(S(C)(=O)=O)c2)c1` [Compound F1, 4-(2-Methoxyphenyl)-N-(3-(methylsulfonyl)phenyl)pyridin-2-amine] as the compound, how does the IC50 (MDAMB468 cells) read?
A: 1 to 10 µM

Q: `COc1cc(F)ccc1-c1ccnc(Nc2cccc(CS(N)(=O)=O)c2)c1` [Compound G1, [3-((4-(4-Fluoro-2-methoxyphenyl)pyridin-2-yl)amino)phenyl]-methanesulfonamide] was tested. Which IC50 (CDK2/CyclinA) did it give?
A: 1000 to 10000 nM

Q: And the IC50 (MDAMB468 cells)?
A: 1 to 10 µM

Q: And the IC50 (CDK7/CyclinH/MAT1)?
A: > 10 µM

Q: For `COc1cc(F)ccc1-c1ccnc(Nc2cccc(CS(=O)(=O)N(C)C)c2)c1` [Compound G3, 1-[3-((4-(4-Fluoro-2-methoxyphenyl)pyridin-2-yl)amino)phenyl]-N,N-dimethylmethanesulfonamide], which IC50 (CDK2/CyclinA) is on record?
A: 1000 to 10000 nM

Q: And the IC50 (MDAMB468 cells)?
A: 1 to 10 µM

Q: And the IC50 (CDK7/CyclinH/MAT1)?
A: > 10 µM

Q: `COc1cc(F)ccc1-c1ccnc(Nc2cccc(NS(C)(=O)=O)c2)c1` [Compound J1, N-[3-((4-(4-Fluoro-2-methoxyphenyl)pyridin-2-yl)amino)phenyl]-methanesulfonamide] was tested. Which IC50 (CDK2/CyclinA) did it give?
A: 100 to 1000 nM

Q: And the IC50 (MDAMB468 cells)?
A: 1 to 10 µM

Q: And the IC50 (CDK7/CyclinH/MAT1)?
A: > 10 µM

Q: `COc1cc(F)ccc1-c1ccnc(Nc2cccc(NC(C)=O)c2)c1` [Compound J2, N-[3-((4-(4-Fluoro-2-methoxyphenyl)pyridin-2-yl)amino)phenyl]-acetamide] was tested. Which IC50 (CDK2/CyclinA) did it give?
A: 100 to 1000 nM

Q: What about the IC50 (MDAMB468 cells) of the same compound?
A: 1 to 10 µM

Q: What about the IC50 (CDK7/CyclinH/MAT1) of the same compound?
A: > 10 µM

Q: Which results are given for `CCCNS(=O)(=O)Cc1cccc(Nc2cc(-c3ccc(F)cc3OC)ccn2)c1` [Compound K1, 1-[3-((4-(4-Fluoro-2-methoxyphenyl)pyridin-2-yl)amino)phenyl]-N-propylmethanesulfonamide]?
A: IC50 (CDK2/CyclinA): 1000 to 10000 nM; IC50 (MDAMB468 cells): > 10 µM; IC50 (CDK7/CyclinH/MAT1): > 10 µM
